Values of other authors, collected in PubChem BioAssay AID1259409 (Chemical Carcinogenesis Research Information System (CCRIS), 2018).

Test system: rodent chemically induced tumor inhibition, incidence and multiplicity
Experiment: CCRIS tumor inhibitor studies

| SMILES | tumour outcome (control, treated, inhibition, significance) (Carcinogen: TRANS-5-AMINO-3-[2-(5-NITRO-2-FURYL)VINYL]-1,2,4-OXADIAZOLE;SQL8506, 28754-68-9, Carcinogen: TRANS-5-AMINO-3-[2-(5-NITRO-2-FURYL)VINYL]-1,2,4-OXADIAZOLE;SQL8506, 28754-68-9, Dose [Inhibitor]: 80 MG/KG 18 HR BEFORE THE 1ST CARCINOGEN DOSE FOLLOWED BY ADDITIONAL INJECTIONS IMMEDIATELY BEFORE EACH DOSE OF CARCINOG, Route [Inhibitor]: INTRAPERITONEAL, Species: MOUSE, Strain/Sex: CD-1/FEMALE, Target Tissue: Type of Lesion: LYMPHOID TISSUE: NONTHYMIC LYMPHOMA, Dose [Carcinogen]: 1 G/KG 2/D FOR 5 D EVERY 4 WK FOR 3 COURSES OF TREATMENT, Promoter: NONE USED) | tumour outcome (control, treated, inhibition, significance) (Carcinogen: TRANS-5-AMINO-3-[2-(5-NITRO-2-FURYL)VINYL]-1,2,4-OXADIAZOLE;SQL8506, 28754-68-9, Carcinogen: TRANS-5-AMINO-3-[2-(5-NITRO-2-FURYL)VINYL]-1,2,4-OXADIAZOLE;SQL8506, 28754-68-9, Dose [Inhibitor]: 80 MG/KG 18 HR BEFORE THE 1ST CARCINOGEN DOSE FOLLOWED BY ADDITIONAL INJECTIONS IMMEDIATELY BEFORE EACH DOSE OF CARCINOG, Route [Inhibitor]: INTRAPERITONEAL, Species: MOUSE, Strain/Sex: CD-1/FEMALE, Target Tissue: Type of Lesion: LYMPHOID TISSUE: THYMIC LYMPHOMA, Dose [Carcinogen]: 1 G/KG 2/D FOR 5 D EVERY 4 WK FOR 3 COURSES OF TREATMENT, Promoter: NONE USED) | tumour outcome (control, treated, inhibition, significance) (Carcinogen: TRANS-5-AMINO-3-[2-(5-NITRO-2-FURYL)VINYL]-1,2,4-OXADIAZOLE;SQL8506, 28754-68-9, Carcinogen: TRANS-5-AMINO-3-[2-(5-NITRO-2-FURYL)VINYL]-1,2,4-OXADIAZOLE;SQL8506, 28754-68-9, Dose [Inhibitor]: 80 MG/KG 18 HR BEFORE THE 1ST CARCINOGEN DOSE FOLLOWED BY ADDITIONAL INJECTIONS IMMEDIATELY BEFORE EACH DOSE OF CARCINOG, Route [Inhibitor]: INTRAPERITONEAL, Species: MOUSE, Strain/Sex: CD-1/FEMALE, Target Tissue: Type of Lesion: STOMACH: SQUAMOUS CARCINOMA, Dose [Carcinogen]: 1 G/KG 2/D FOR 5 D EVERY 4 WK FOR 3 COURSES OF TREATMENT, Promoter: NONE USED) | tumour outcome (control, treated, inhibition, significance) (Carcinogen: 2-AMINO-1-METHYL-6-PHENYL-1H-IMIDAZO[4,5-B]PYRID INE [105650-23-5], Dose [Inhibitor]: 0, 400 PPM IN DIET FOR DURATION OF STUDY BEGINNING 1 D PRIOR TO CARCINOGEN TREATMENT (STUDY DURATION: 21 WK), Route [Inhibitor]: ORAL, Species: RAT, Strain/Sex: SPRAGUE-DAWLEY/FEMALE, Target Tissue: Type of Lesion: MAMMARY GLAND: DUCTAL CARCINOMA, Dose [Carcinogen]: 85 MG/KG BW 4X/WK FOR 2 WK) | tumour outcome (control, treated, inhibition, significance) (Carcinogen: 7, 12-DIMETHYLBENZ(A)ANTHRACENE [57-97-6], Dose [Inhibitor]: 5 MG/KG BW TWICE WEEKLY BEGINNING 3 D BEFORE FIRST CARCINOGEN DOSE FOR 13 WK (STUDY DURATION: 13 WK), Route [Inhibitor]: SUBCUTANEOUS, Species: RAT, Strain/Sex: SPRAGUE-DAWLEY/FEMALE, Target Tissue: Type of Lesion: MAMMARY GLAND: TUMOR, Dose [Carcinogen]: 10 MG THREE TIMES BETWEEN POSTNATAL DAYS 45-59) | tumour outcome (control, treated, inhibition, significance) (Carcinogen: AZOXYMETHANE (25843-45-2), Dose [Inhibitor]: 0, 0.04% 1 WK AFTER END OF DEXTRAN SODIUM SULFATE TREATMENT FOR 14 WKS (STUDY DURATION: 17 WKS), Route [Inhibitor]: DIET, Species: MOUSE, Strain/Sex: CD-1/FEMALE (10,10)/(10,10), Target Tissue: Type of Lesion: COLON: ADENOMA, Dose [Carcinogen]: 10 MG/KG ONCE, Promoter: DEXTRAN SODIUM SULFATE (9011-18-1)) | tumour outcome (control, treated, inhibition, significance) (Carcinogen: AZOXYMETHANE (25843-45-2), Dose [Inhibitor]: 0, 0.04% IN DIET 1 WK AFTER END OF DEXTRAN SODIUM SULFATE TREATMENT FOR 14 WKS (STUDY DURATION: 17 WKS), Route [Inhibitor]: DIET, Species: MOUSE, Strain/Sex: CD-1/FEMALE (10,10)/(10,10), Target Tissue: Type of Lesion: COLON: ADENOCARCINOMA, Dose [Carcinogen]: 10 MG/KG ONCE, Promoter: DEXTRAN SODIUM SULFATE (9011-18-1)) | tumour outcome (control, treated, inhibition, significance) (Carcinogen: AZOXYMETHANE, 25843-45-2, Dose [Inhibitor]: 0, 200 PPM IN DIET FOR DURATION OF STUDY BEGINNING 1D PRIOR TO CARCINOGEN TREATMENT (STUDY DURATION: 30 WK), Route [Inhibitor]: ORAL, Species: MOUSE, Strain/Sex: ICR/MALE, Target Tissue: Type of Lesion: COLON: CARCINOMA, Dose [Carcinogen]: 10 MG/KG BW IN SALINE 1/WK FOR 6 WK, Promoter: NONE USED) | tumour outcome (control, treated, inhibition, significance) (Carcinogen: AZOXYMETHANE, 25843-45-2, Dose [Inhibitor]: 0, 400 PPM IN DIET FOR DURATION OF STUDY BEGINNING 1 D PRIOR TO CARCINOGEN TREATMENT (STUDY DURATION: 30 WK), Route [Inhibitor]: ORAL, Species: MOUSE, Strain/Sex: ICR/MALE, Target Tissue: Type of Lesion: COLON: CARCINOMA, Dose [Carcinogen]: 10 MG/KG BW IN SALINE 1/WK FOR 6 WK, Promoter: NONE USED) | tumour outcome (control, treated, inhibition, significance) (Carcinogen: N-BUTYL-N-(4-HYDROXYBUTYL)NITROSAMINE, 3817-11-6, Dose [Inhibitor]: 0, 100 PPM IN DIET FOR 12 WK BEGINNING POST CARCINOGEN TREATMENT (STUDY DURATION: 20 WK), Route [Inhibitor]: ORAL, Species: RAT, Strain/Sex: F344/MALE, Target Tissue: Type of Lesion: URINARY BLADDER: TRANSITIONAL CELL CARCINOMA, Dose [Carcinogen]: 0.05% IN DRINKING WATER FOR 8 WK, Promoter: NONE USED) | tumour outcome (control, treated, inhibition, significance) (Carcinogen: N-BUTYL-N-(4-HYDROXYBUTYL)NITROSAMINE, 3817-11-6, Dose [Inhibitor]: 0, 200 PPM IN DIET FOR 12 WK BEGINNING POST CARCINOGEN TREATMENT (STUDY DURATION: 20 WK), Route [Inhibitor]: ORAL, Species: RAT, Strain/Sex: F344/MALE, Target Tissue: Type of Lesion: URINARY BLADDER: TRANSITIONAL CELL CARCINOMA, Dose [Carcinogen]: 0.05% IN DRINKING WATER FOR 8 WK, Promoter: NONE USED) | tumour outcome (control, treated, inhibition, significance) (Carcinogen: N-BUTYL-N-(4-HYDROXYBUTYL)NITROSAMINE, 3817-11-6, Dose [Inhibitor]: 0, 400 PPM IN DIET FOR 12 WK BEGINNING POST CARCINOGEN TREATMENT (STUDY DURATION: 20 WK), Route [Inhibitor]: ORAL, Species: RAT, Strain/Sex: F344/MALE, Target Tissue: Type of Lesion: URINARY BLADDER: TRANSITIONAL CELL CARCINOMA, Dose [Carcinogen]: 0.05% IN DRINKING WATER FOR 8 WK, Promoter: NONE USED) | tumour outcome (control, treated, inhibition, significance) (Carcinogen: N-METHYL-N-NITROSOUREA [684-93-5], Dose [Inhibitor]: 5 MG/KG BW TWICE WEEKLY BEGINNING 5 D BEFORE FIRST CARCINOGEN DOSE FOR 27 WK (STUDY DURATION: 27 WK), Route [Inhibitor]: SUBCUTANEOUS, Species: RAT, Strain/Sex: SPRAGUE-DAWLEY/FEMALE, Target Tissue: Type of Lesion: MAMMARY GLAND: TUMOR, Dose [Carcinogen]: 50 MG/KG BW TWICE ON POSTNATAL DAYS 51 AND 58) |
| --- | --- | --- | --- | --- | --- | --- | --- | --- | --- | --- | --- | --- | --- |
| OCC(S)CS (stereo not drawn) | 8/137 (6%), 1/26 (4%), 33%, not calculated | 22/137 (16%), 4/26 (15%), 6%, not calculated | 60/137 (44%), 14/26 (54%), -23%, not calculated |  |  |  |  |  |  |  |  |  |  |
| CS(=O)(=O)Nc1ccc([N+](=O)[O-])cc1Oc1ccccc1 |  |  |  | 30/42 (71%), 19/37 (51%), 28.2%, not significant | 23/24 (95.8%), 24/25 (96.0%), -0.2%, not significant | 10/10 (100%), 6/10 (60%), 40%, p<0.05 | 10/10 (100%), 4/10 (40%), 60%, p<0.01 | 14/28 (50%), 12/37 (32%), 36%, not significant | 14/28 (50%), 10/40 (25%), 50%, p<0.05 | 18/20 (90%), 12/20 (60%), 33%, not significant | 18/20 (90%), 8/16 (50%), 44%, p<0.05 | 18/20 (90%), 5/19 (26%), 71%, p<0.0002 | 17/18 (94%), 10/18 (55.6%), 41%, p<0.05 |
